Test [1] has as its target T1, RORγt ligand-binding domain (RORγt-LBD) (Homo sapiens, UniProt P51449).
T1 construct: 20 nM recombinantly expressed RORγ-LBD fused to GST
T1 sequence (P51449 269-508 limits assumed): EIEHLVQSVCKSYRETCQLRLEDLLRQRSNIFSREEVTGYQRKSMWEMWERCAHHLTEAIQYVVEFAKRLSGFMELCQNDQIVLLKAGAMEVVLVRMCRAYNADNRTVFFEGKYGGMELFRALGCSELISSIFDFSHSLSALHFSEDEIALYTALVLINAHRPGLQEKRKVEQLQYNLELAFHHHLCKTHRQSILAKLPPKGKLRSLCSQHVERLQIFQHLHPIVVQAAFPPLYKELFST
As to the kind of experiment: Time-resolved FRET (TR-FRET) RORγt coactivator assay. It counts as biochemical. The conditions noted are these: GST-RORγ-LBD, biotinylated RIP140 peptide, coactivator displacement.

Test [2] deals with T2, human RORγt (Homo sapiens, UniProt P51449).
T2 sequence (P51449 1-497 isoform P51449-2): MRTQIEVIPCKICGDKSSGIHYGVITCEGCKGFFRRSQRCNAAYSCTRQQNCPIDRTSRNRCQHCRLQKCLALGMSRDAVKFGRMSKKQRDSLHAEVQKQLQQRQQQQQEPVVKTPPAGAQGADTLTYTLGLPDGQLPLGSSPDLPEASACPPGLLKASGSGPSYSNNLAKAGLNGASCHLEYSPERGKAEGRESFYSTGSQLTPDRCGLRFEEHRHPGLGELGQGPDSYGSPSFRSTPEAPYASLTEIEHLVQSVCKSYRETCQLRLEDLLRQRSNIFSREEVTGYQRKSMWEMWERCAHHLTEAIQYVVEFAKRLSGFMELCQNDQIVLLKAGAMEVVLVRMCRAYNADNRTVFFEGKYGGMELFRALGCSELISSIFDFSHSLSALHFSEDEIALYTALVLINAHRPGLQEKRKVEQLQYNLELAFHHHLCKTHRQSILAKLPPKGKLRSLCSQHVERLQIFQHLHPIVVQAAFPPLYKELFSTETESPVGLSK
Nature of the test: IL-17 secretion from EL4 murine lymphoma overexpressing human RORγt. It counts as cell-based. Set-up: expressed in transfected cells; host or cells: EL-4 murine lymphoma. As to conditions: IL-17 secretion inhibition, PMA and ionomycin stimulation, 24 h. On the procedure: Murine EL-4 lymphoma cell line overexpressing human RORγt was used in this functional assay to assess compound ability to inhibit IL-17 cytokine secretion.
EL-4 cells are maintained in a standard culture medium RPMI supplemented with 10% fetal calf serum, 1% sodium pyruvate, 1% essential amino acids and 1% antibiotics at 37° C. in a humidified atmosphere of 5% CO2 and 95% air. Culture medium was changed every 2 days. EL4 cells were transfected with a plasmid encoding hRORγt (sequence identical to published sequence NM 001001523). […] Briefly, 1 μg of DNA/1 million cells was served to transfect EL-4 cells. Cell/DNA suspension was transferred into certified cuvette and the electroporation of RORγt plasmid was carried out using appropriate Nucleofector® program.
Cells were seeded in 96 well plates at a density of 150000 cells/well then treated with compounds of this invention at indicated concentrations and incubated for 24 hours at 37° C. in a humidified atmosphere of 5% CO2 and 95% air. EL-4 cells were pretreated with test compounds (RORγ modulators) and stimulated with PMA (10 ng/mL) and ionomycin (1 μM final concentration) in the presence of test compound concentrations for additional 24 h at 37° C. in a humidified atmosphere of 5% CO2 and 95% air. Subsequently, supernatants were collected (after centrifugation at 300 g for 10 minutes) to determine the concentrations of IL-17 by HTRF (CisBio, France) or ELISA (R&D Systems Europe) according to the manufacturer's protocols.

One may read the IC50 as the concentration needed to halve the response being measured.

Regarding `Cc1ccc(C(NC(=O)Cc2ccc3[nH]cc(CCC(=O)OC(C)(C)C)c3c2)c2ccccc2)c(OC(C)C)c1` (centres unmarked) [Cpd. 145, tert-butyl 3-{5-[({[4-methyl-2-(propan-2-yloxy)phenyl](phenyl)methyl}carbamoyl)methyl]-1H-indol-3-yl}propanoate], the IC50 is less than 1000 nM in test [1] and 1000 to 10000 nM in test [2].
The corresponding values for `CCOC(=O)CCc1n[nH]c2ccc(CC(=O)NC(c3ccccc3)c3ccc(C)cc3OC(C)C)cc12` (centres unmarked) [Cpd. 159, ethyl 3-{5-[({[4-methyl-2-(propan-2-yloxy)phenyl](phenyl)methyl}carbamoyl)methyl]-1H-indazol-3-yl}propanoate] are less than 1000 nM and 1000 to 10000 nM.
The corresponding values for `CCOC(=O)CCCc1c[nH]c2ccc(CC(=O)NC(c3ccccc3)c3ccccc3N3CCCCC3)cc12` (centres unmarked) [Cpd. 211, ethyl 4-{5-[({phenyl[2-(piperidin-1-yl)phenyl]methyl}carbamoyl)methyl]-1H-indol-3-yl}butanoate] are less than 1000 nM and 1000 to 10000 nM.
For `CCOC(=O)CCCCc1c[nH]c2ccc(CC(=O)NC(c3ccccc3)c3ccccc3N3CCCCC3)cc12` (centres unmarked) [Cpd. 216, ethyl 5-{5-[({phenyl[2-(piperidin-1-yl)phenyl]methyl}carbamoyl)methyl]-1H-indol-3-yl}pentanoate], the IC50 in test [1] is less than 1000 nM; in test [2], 1000 to 10000 nM.
The corresponding values for `CC(C)(C)OC(=O)CCc1c[nH]c2ccc(NC(=O)NC(c3ccccc3)c3ccccc3N3CCCCC3)cc12` (centres unmarked) [compound 55, tert-butyl 3-{5-[({phenyl[2-(piperidin-1-yl)phenyl]methyl}carbamoyl)amino]-1H-indol-3-yl}propanoate] are 10000 to 30000 nM and 1000 to 10000 nM.
The corresponding values for `O=C(O)CCc1c[nH]c2ccc(CC(=O)NC(c3ccccc3)c3cc(Cl)ccc3N3CCCCC3)cc12` (centres unmarked) [compound 62, 3-{5-[({[5-chloro-2-(piperidin-1-yl)phenyl](phenyl)methyl}carbamoyl)methyl]-1H-indol-3-yl}propanoic acid] are less than 1000 nM and 1000 to 10000 nM.
As to `Cc1ccc(C(NC(=O)Cc2ccc3[nH]cc(CC(=O)O)c3c2)c2ccccc2)c(N2CCCC2)c1` (centres unmarked) [compound 65, 2-{5-[({[4-methyl-2-(pyrrolidin-1-yl)phenyl](phenyl)methyl}carbamoyl)methyl]-1H-indol-3-yl}acetic acid], the IC50 in test [1] was less than 1000 nM; in test [2] it was 1000 to 10000 nM.
Regarding `Cc1ccc(C(NC(=O)Cc2ccc3[nH]cc(CC(=O)O)c3c2)c2ccccc2)c(N2CCCCC2)c1` (centres unmarked) [compound 87, 2-{5-[({[4-methyl-2-(piperidin-1-yl)phenyl](phenyl)methyl}carbamoyl)methyl]-1H-indol-3-yl}acetic acid], the values for the IC50 in test [1] and in test [2] were less than 1000 nM and 1000 to 10000 nM, respectively.
The corresponding values for `O=C(O)CCc1c[nH]c2ccc(CC(=O)NC(c3ccccc3)c3ccc(Cl)cc3N3CCCC3)cc12` (centres unmarked) [compound 91, 3-{5-[({[4-chloro-2-(pyrrolidin-1-yl)phenyl](phenyl)methyl}carbamoyl)methyl]-1H-indol-3-yl}propanoic acid] are less than 1000 nM and 1000 to 10000 nM.
For the compound `CC(C)CC(NC(=O)Cc1ccc2[nH]cc(CCC(=O)O)c2c1)c1cccc2ccccc12` (centres unmarked) [compound 105, 3-[5-({[3-methyl-1-(naphthalen-1-yl)butyl]carbamoyl}methyl)-1H-indol-3-yl]propanoic acid], the IC50 is less than 1000 nM in test [1] and 1000 to 10000 nM in test [2].
In the case of `COc1ccc(C(NC(=O)Cc2ccc3[nH]cc(CCC(=O)O)c3c2)c2ccccc2)c(N2CCCC2)c1` (centres unmarked) [compound 109, 3-{5-[({[4-methoxy-2-(pyrrolidin-1-yl)phenyl](phenyl)methyl}carbamoyl)methyl]-1H-indol-3-yl}propanoic acid], the IC50 in test [1] was less than 1000 nM; in test [2] it was 1000 to 10000 nM.
The corresponding values for `Cc1ccc(C(NC(=O)Cc2ccc3[nH]cc(CC(=O)N(C)C)c3c2)c2ccccc2)c(N2CCOCC2)c1` (centres unmarked) [compound 112, N,N-dimethyl-2-{5-[({[4-methyl-2-(morpholin-4-yl)phenyl](phenyl)methyl}carbamoyl)methyl]-1H-indol-3-yl}acetamide] are less than 1000 nM and 1000 to 10000 nM.
The corresponding values for `Cc1ccc(N2CCCCC2)c(C(NC(=O)Cc2ccc3[nH]cc(CCC(=O)O)c3c2)c2ccccc2)c1` (centres unmarked) [compound 114, 3-{5-[({[5-methyl-2-(piperidin-1-yl)phenyl](phenyl)methyl}carbamoyl)methyl]-1H-indol-3-yl}propanoic acid] are less than 1000 nM and 1000 to 10000 nM.
The corresponding values for `CNC(=O)CCc1c[nH]c2ccc(CC(=O)NC(c3ccccc3)c3ccccc3N3CCCCC3)cc12` (centres unmarked) [compound 115, N-methyl-3-{5-[({phenyl[2-(piperidin-1-yl)phenyl]methyl}carbamoyl)methyl]-1H-indol-3-yl}propanamide] are less than 1000 nM and 1000 to 10000 nM.
Consider `O=C(O)CCc1c[nH]c2ccc(CC(=O)NC(c3ccccc3)c3cc(Br)ccc3N3CCCC3)cc12` (centres unmarked) [compound 117, 3-{5-[({[5-bromo-2-(pyrrolidin-1-yl)phenyl](phenyl)methyl}carbamoyl)methyl]-1H-indol-3-yl}propanoic acid], for which the concentration for half-maximal inhibition (IC50) in test [1] was less than 1000 nM; in test [2] it was 10000 to 30000 nM.
The corresponding values for `CCNc1cc(C)ccc1C(NC(=O)Cc1ccc2[nH]cc(CCC(=O)O)c2c1)c1ccccc1` (centres unmarked) [compound 120, 3-{5-[({[2-(ethylamino)-4-methylphenyl](phenyl)methyl}carbamoyl)methyl]-1H-indol-3-yl}propanoic acid] are less than 1000 nM and 1000 to 10000 nM.
The corresponding values for `Cc1ccc(C(NC(=O)Cc2ccc3[nH]cc(CCC(=O)O)c3c2)c2ccccc2)c(NC(C)C)c1` (centres unmarked) [compound 126, 3-(5-{[({4-methyl-2-[(propan-2-yl)amino]phenyl}(phenyl)methyl)carbamoyl]methyl}-1H-indol-3-yl)propanoic acid] are less than 1000 nM and 1000 to 10000 nM.
The corresponding values for `COc1ccc(N2CCCCC2)c(C(NC(=O)Cc2ccc3[nH]cc(CCC(=O)O)c3c2)c2ccccc2)c1` (centres unmarked) [compound 136, 3-{5-[({[5-methoxy-2-(piperidin-1-yl)phenyl](phenyl)methyl}carbamoyl)methyl]-1H-indol-3-yl}propanoic acid] are less than 1000 nM and 1000 to 10000 nM.
Turning to `Cc1ccc(C(NC(=O)Cc2ccc3[nH]cc(CCC(=O)O)c3c2)c2ccc(C)s2)c(N2CCCCC2)c1` (centres unmarked) [compound 138, 3-{5-[({[4-methyl-2-(piperidin-1-yl)phenyl](5-methylthiophen-2-yl)methyl}carbamoyl)methyl]-1H-indol-3-yl}propanoic acid], the IC50 was less than 1000 nM in test [1] and 1000 to 10000 nM in test [2].
The corresponding values for `Cc1ccc(C(NC(=O)Cc2ccc3[nH]cc(CCC(=O)O)c3c2)c2nccs2)c(N2CCCCC2)c1` (centres unmarked) [compound 140, 3-{5-[({[4-methyl-2-(piperidin-1-yl)phenyl](1,3-thiazol-2-yl)methyl}carbamoyl)methyl]-1H-indol-3-yl}propanoic acid] are less than 1000 nM and 1000 to 10000 nM.
The corresponding values for `COc1ccc(C(NC(=O)Cc2ccc3[nH]cc(CCC(=O)O)c3c2)c2ccccc2)c(N2CCCCCC2)c1` (centres unmarked) [compound 142, 3-{5-[({[2-(azepan-1-yl)-4-methoxyphenyl](phenyl)methyl}carbamoyl)methyl]-1H-indol-3-yl}propanoic acid] are less than 1000 nM and 1000 to 10000 nM.
Regarding `O=C(O)CCc1c[nH]c2ccc(CC(=O)NC3(c4ccccc4N4CCCCC4)CCCCC3)cc12` [compound 144, 3-{5-[({1-[2-(piperidin-1-yl)phenyl]cyclohexyl}carbamoyl)methyl]-1H-indol-3-yl}propanoic acid], the IC50 in test [1] was less than 1000 nM; in test [2], 1000 to 10000 nM.
